Non-standard residues stand in square brackets, D forms with d. pGlu = O=C1CC[C@@H](C(=O)O)N1
Legend:
PBMC = experiment: Overnight IFNγ ELISpot assay with fresh PBMC (Example 2); assay type: cell-based, human; details: for Percent of maximal response, ELISp: after oral gluten challenge; for IFNγ ELISpot % max Mean: individual peptides 5 μM, Day-6, n = 5, Peptide 2 = CSBio batch
Protocol: Ten HLA-DQ2.5+ adults with celiac disease diagnosed according to the National Institutes of Health Consensus Statement 2004 were enrolled (Table 7).^22 Subjects were required to have followed gluten-free diet for at least one year and without known gluten exposures within the previous two-months. […] Full inclusion and exclusion criteria are described in Table 8. Each of 3 consecutive days subjects consumed 3 cookies that were prepared from approximately 4.5 g wheat gluten, 3 g barley flour protein, and 1.5 g rye flour protein. Blood was collected before and six days after commencing the oral challenge. Blood was collected using a 21G butterfly needle directly into 10 mL lithium heparin tubes (BD Vacutainer® Heparin tube #367880) and QuantiFERON® NIL (0591-0205, Cellestis Ltd., Chadstone VIC 3148 Australia) and QuantiFERON® MITOGEN (0593-0201, Cellestis Ltd.).
Overnight IFNγ ELISpot assays (Human IFN-γ ELISpotPRO kit, transparent, ALP; Mabtech AB, #3420-2APT-10) were performed using PBMC freshly separated from heparinized blood diluted 1:1 in PBS with 2% fetal bovine serum (Stemcell Technologies #07905; Vancouver, BC, V5Z 1B3, Canada) overlaid on density gradient medium (Ficoll-Paque™ PLUS; GE Healthcare Lice Sciences #:17-1440-02) in SepMate™-50 tubes (Stemcell Technologies #15460). PBMC (8 million/mL) were resuspended in serum-free medium with gentamicin and phenol red (X-VIVO™15; Lonza, Walkersville Mass. 21793). PBMC (0.4 million/50 μL/well) and incubated with 50 μL 80% X-vivol5, 0.2% DMSO and 20% PBS in three triplicate wells (“medium only”), or with 50 μL PHA-L 20 μg/ml or peptide at 2× final concentration in 80% X-vivol5, 0.2% DMSO and 20% PBS. Peptide solutions to be added to individual ELISpot wells were prepared in 96-well U-bottom plates (60 μL/well) that were then sealed with adhesive ELISA plate cover slips before replacing the plastic lid and being frozen at −80° C. 96-well plates containing peptide solutions were thawed at room temperature for 10 min while being centrifuged at 300 g immediately prior to being added to ELISpot wells. Peptide pools and mitogen were assessed in triplicate wells, and individual peptides were assessed in duplicate wells. X-VIVO™15 (50 μL) was incubated with 80% X-vivol5, 0.2% DMSO and 20% PBS (50 μL) in triplicate wells (“no PBMC” control). A Zeiss automated ELISpot counter was used to determine spot forming units (SFU) per well (Zellnet Inc., Fort Lee, N.J. 07024). Laboratory staff were unaware of the arrangement of peptide solutions in ELISpot wells during assay setup and plate counting.

whole blood = experiment: 96-well plate whole blood multiplex cytokine release, IP-10 (MAGPIX bead assay, Example 2); assay type: cell-based, human; details: for Percent of maximal response, IP-10: after oral gluten challenge; for IP-10 WB MAGPIX % max Mean: individual peptides 5 μM, Day-6, n = 10, Peptide 2 = CSBio batch

Substance | Percent of maximal response, ELISp (PBMC; Subject 3, Max. 18 SFU) | Percent of maximal response, ELISp (PBMC; Subject 4, Max. 36 SFU) | Percent of maximal response, ELISp (PBMC; Subject 6, Max. 16 SFU) | Percent of maximal response, ELISp (PBMC; Subject 8, Max. 17 SFU) | Percent of maximal response, ELISp (PBMC; Subject 10, Max. 11 SFU) | IFNγ ELISpot % max Mean (PBMC) | Percent of maximal response, IP-10 (whole blood; Subject 1, Max. 2331 pg/mL) | Percent of maximal response, IP-10 (whole blood; Subject 2, Max. 3646 pg/mL) | Percent of maximal response, IP-10 (whole blood; Subject 3, Max. 9492 pg/mL) | Percent of maximal response, IP-10 (whole blood; Subject 4, Max. 9463 pg/mL) | Percent of maximal response, IP-10 (whole blood; Subject 5, Max. 9336 pg/mL) | Percent of maximal response, IP-10 (whole blood; Subject 6, Max. 5863 pg/mL) | Percent of maximal response, IP-10 (whole blood; Subject 7, Max. 2330 pg/mL) | Percent of maximal response, IP-10 (whole blood; Subject 8, Max. 4019 pg/mL) | Percent of maximal response, IP-10 (whole blood; Subject 9, Max. 8349 pg/mL) | Percent of maximal response, IP-10 (whole blood; Subject 10, Max. 8922 pg/mL) | IP-10 WB MAGPIX % max Mean (whole blood) | IFNγ ELISpot responses relative to Peptide 14 5 μM (PBMC; Peptide 3 10 μg/mL (5.3 μM)) | whole blood IP-10 release compared with that stimulated by Peptide 14 (whole blood; whole blood incubations)
(pE)LQPFPQPELPYPQPQ-amide ([pGlu]LQPFPQPELPYPQPQ-NH2; SMILES CC(C)C[C@H](NC(=O)[C@@H]1CCC(=O)N1)C(=O)N[C@@H](CCC(N)=O)C(=O)N1CCC[C@H]1C(=O)N[C@@H](Cc1ccccc1)C(=O)N1CCC[C@H]1C(=O)N[C@@H](CCC(N)=O)C(=O)N1CCC[C@H]1C(=O)N[C@@H](CCC(=O)O)C(=O)N[C@@H](CC(C)C)C(=O)N1CCC[C@H]1C(=O)N[C@@H](Cc1ccc(O)cc1)C(=O)N1CCC[C@H]1C(=O)N[C@@H](CCC(N)=O)C(=O)N1CCC[C@H]1C(=O)N[C@@H](CCC(N)=O)C(N)=O) [Peptide 1] | 11 % of max | 22 % of max | 25 % of max | 0 % of max | 9 % of max | 13 % max | 100 % of max | 100 % of max | ≥ 100 % of max | 96 % of max | 14 % of max | 23 % of max | 39 % of max | 3 % of max | 75 % of max | 34 % of max | 58 % max |  | 
(pE)PEQPIPEQPQPYPQQ-amide ([pGlu]PEQPIPEQPQPYPQQ-NH2; SMILES CC[C@H](C)[C@H](NC(=O)[C@@H]1CCCN1C(=O)[C@H](CCC(N)=O)NC(=O)[C@H](CCC(=O)O)NC(=O)[C@@H]1CCCN1C(=O)[C@@H]1CCC(=O)N1)C(=O)N1CCC[C@H]1C(=O)N[C@@H](CCC(=O)O)C(=O)N[C@@H](CCC(N)=O)C(=O)N1CCC[C@H]1C(=O)N[C@@H](CCC(N)=O)C(=O)N1CCC[C@H]1C(=O)N[C@@H](Cc1ccc(O)cc1)C(=O)N1CCC[C@H]1C(=O)N[C@@H](CCC(N)=O)C(=O)N[C@@H](CCC(N)=O)C(N)=O) [Peptide 3] | 50 % of max | 83 % of max | 69 % of max | 53 % of max | 9 % of max | 53 % max | 51 % of max | 14 % of max | ≥ 100 % of max | ≥ 100 % of max | 53 % of max | 43 % of max | 5 % of max | 100 % of max | 85 % of max | ≥ 100 % of max | 65 % max | one-half | one-quarter less
